Experimental data published in patent publication US6379649B1, “Imidazo(1,2-a)pyridines as peripheral benzodiazepine receptor binding agents” (Australian Nuclear Science & Technology Organisation, priority 1998, dated 2002).
Where two headings read alike, the source gives them in different places.

Legend:
[1] = target: central benzodiazepine receptor; assay: In vitro binding assay for central benzodiazepine receptors ([^3H]-Ro 15-1788, rat cortex membranes); conditions: rat cortex membrane / rat brain homogenates, [^3H]-Ro 15-1788 2 nM, 25° C., 45 minutes; read-out: IC50 (nM) CBR
Method: In Vitro Binding Assays for Central Benzodiazepine Receptors
Male Sprague Dawley rats are sacrificed by CO2 administration followed by cervical dislocation. Cortex is removed and placed in 20 volumes of ice-cold buffer ([…] Tris-HCl, pH 7.4) and minced finely with scissors. After homogenising the preparation will a polytron (PCU Kinematica, Bioblock, Switzerland) with one 10-second burst at a setting of 6, the suspension is centrifuged at 20,000 g for 20 minutes at 4° C. The pellets are resuspended in the previous buffer with a dounce (manual homogeniser). After the second centrifugation, the pellet is suspended in a final buffer (50 nM Tris/HCl, 0.32M sucrose, pH 7.4) to yield an appropriate protein concentration. Protein measurements are made by Lowry's method using bovine serum albumin as standard.
(§1) Non-specific binding is determined by blocking with cold Flumazenil (20 μM). Incubation is terminated by rapid filtration through Whatman GF/B glass fiber. Each sample tube and filter is immediately washed with 3 aliquots of 5 mL ice-cold […] Tris/HCl at pH 7.4. Filters are counted with a β-scintillation counter (Packard) to measure the amount of bound radioactivity. Ki and IC50 are calculated by EBDA/Ligand, iterative non-linear least squares curve-fitting programs (G. A. McPherson, J. Pharmacol. Methods 14, 213-228 (1985)).

[2] = target: peripheral benzodiazepine receptor (Rattus norvegicus, UniProt P16257); assay: In vitro binding assay for peripheral benzodiazepine receptors ([^3H]-PK11195, rat kidney membranes); parameters: diluted kidney membrane preparation; from tissue; host or cells: rat kidney membranes (Sprague Dawley)
Method: In Vitro Binding Assays for Peripheral Benzodiazepine Receptors
Male Sprague Dawley rats are sacrificed by CO2 administration followed by cervical dislocation. Kidneys are removed and placed in 20 volumes of ice-cold buffer ([…] Tris-HCl, pH 7.4) and minced finely with scissors. After homogenising the preparation with a polytron (PCU Kintematica, Bioblock, Switzerland) with one 10-second burst at a setting of 10, the suspension is centrifuged at 49,000 g for 15 minutes at 4° C. The pellets are resuspended in the previous buffer with a dounce (manual homogeniser) to yield an appropriate protein concentration. Protein measurements are made by Lowry's method using bovine serum albumin as standard.
as §1, with “PK11195 (10” for “Flumazenil (20”, “programs.” for “programs (G. A. McPherson, J. Pharmacol. Methods 14, 213-228 (1985)).”

[3] = In vivo biodistribution of radiolabelled compounds in rats
Source text: In vivo biodistribution of radiolabelled compounds of the invention indicated high uptake in the tissues which have known PBR sites. Tables 2 to 4 show the biodistribution of the compounds of Examples 1-3, in which the iodine atom is radiolabelled, when administered to rats.

Sequence of peripheral benzodiazepine receptor (P16257 whole entry): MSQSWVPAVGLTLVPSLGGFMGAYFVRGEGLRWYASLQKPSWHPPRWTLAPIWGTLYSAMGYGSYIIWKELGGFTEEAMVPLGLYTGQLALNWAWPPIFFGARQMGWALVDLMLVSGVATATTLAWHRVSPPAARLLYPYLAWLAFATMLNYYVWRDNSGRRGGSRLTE

SMILES: CN(C)C(=O)Cc1c(-c2ccc(I)cc2)nc2ccc(Cl)cn12 [Example 2]
- IC50 [1]: 168 nM
- melting point: 216 to 218 °C
- IC50 [2]: 2.3 nM

SMILES: CCCN(CCC)C(=O)Cc1c(-c2ccc(I)cc2)nc2ccc(Cl)cn12 [Example 5, 6-chloro-2-(4′-iodophenyl)-imidazo[1,2-a]pyridine-3-(N,N-dipropyl)-acetamide]
- IC50 [1]: > 1000 nM
- melting point: 152 to 153 °C
- IC50 [2]: 3.91 nM

SMILES: CNC(=O)Cc1c(-c2ccc(I)cc2)nc2ccc(Cl)cn12 [Example 1, 6-chloro-2-(4′-iodophenyl)-imidazol[1,2-a]pyridine-3-(N-methyl)acetamide]
- IC50 [1]: > 1000 nM
- melting point: 308 to 310 °C
- IC50 [2]: 0.99 nM

SMILES: NC(=O)Cc1c(-c2ccc(F)cc2)nc2ccc(Cl)cn12 [Comparative Example A]
- IC50 [1]: 170 nM
- melting point: 250 to 252 °C
- IC50 [2]: 3340 nM

SMILES: Cc1ccc2nc(-c3ccc(I)cc3)c(CC(=O)N(C)C)n2c1 [E, 6-methyl-2-(4′-iodophenyl)imidazo[1,2-a]pyridine-3-(N,N-dimethyl)acetamide, reference compound]
- IC50 [1]: 155 nM
- IC50 [2]: 176 nM

SMILES: CNC(=O)Cc1c(-c2ccc(Cl)cc2)nc2ccc(Br)cn12 [C]
- IC50 [1]: 15 nM
- melting point: 298 to 300 °C
- IC50 [2]: 33 nM

SMILES: CCCN(C)C(=O)Cc1c(-c2ccc(I)cc2)nc2ccc(Cl)cn12 [Example 4, 6-chloro-2-(4′-iodophenyl)-imidazo[1,2-a]pyridine-3-(N-methyl, N-propyl)-acetamide]
- IC50 [1]: 117 nM
- melting point: 170 to 172 °C
- IC50 [2]: 0.98 nM

SMILES: CCCCN(C)C(=O)Cc1c(-c2ccc(I)cc2)nc2ccc(Cl)cn12 [Example 6, 6chloro-2-(4′-iodophenyl)-imidazo[1,2-a]pyridine-3-(N-methyl, N-butyl)-acetamide]
- IC50 [1]: > 1000 nM
- IC50 ([2]; rat kidney membrane, [^3H]-PK11195 2 nM, 4° C., 1 hour, read-out: IC50 (nM) PBR): 266 nM

SMILES: CNC(=O)Cc1c(-c2ccc([123I])cc2)nc2ccc(Cl)cn12 [^123-I Example 1]
- Biodistribution (% ID/g organ) Adrenals ([3]; 5 Min): 4.51 ± 1.32 % ID/g organ
- Biodistribution (% ID/g organ) Adrenals ([3]; 15 Min): 7.8 ± 2.16 % ID/g organ
- Biodistribution (% ID/g organ) Adrenals ([3]; 24 Hrs): 0.22 ± 0.09 % ID/g organ
- Biodistribution (% ID/g organ) Adrenals ([3]; 30 Min): 11 ± 2.57 % ID/g organ
- Biodistribution (% ID/g organ) Adrenals ([3]; 60 Min): 11.3 ± 0.87 % ID/g organ
- Biodistribution (% ID/g organ) Adrenals ([3]; 180 Min): 9.84 ± 1.69 % ID/g organ
- Biodistribution (% ID/g organ) Adrenals ([3]; 240 Min): 6.78 ± 1.27 % ID/g organ
- Biodistribution (% ID/g organ) Adrenals ([3]; 360 Min): 5.7 ± 0.15 % ID/g organ
- Biodistribution (% ID/g organ) Blood ([3]; 5 Min): 0.25 ± 0.04 % ID/g organ
- Biodistribution (% ID/g organ) Blood ([3]; 15 Min): 0.16 ± 0.01 % ID/g organ
- Biodistribution (% ID/g organ) Blood ([3]; 24 Hrs): 0.01 ± 0.001 % ID/g organ
- Biodistribution (% ID/g organ) Blood ([3]; 30 Min): 0.12 ± 0.01 % ID/g organ
- Biodistribution (% ID/g organ) Blood ([3]; 60 Min): 0.1 ± 0.01 % ID/g organ
- Biodistribution (% ID/g organ) Blood ([3]; 180 Min): 0.07 ± 0.001 % ID/g organ
- Biodistribution (% ID/g organ) Blood ([3]; 240 Min): 0.06 ± 0.01 % ID/g organ
- Biodistribution (% ID/g organ) Blood ([3]; 360 Min): 0.05 ± 0.001 % ID/g organ
- Biodistribution (% ID/g organ) Brain ([3]; 5 Min): 0.11 ± 0.02 % ID/g organ
- Biodistribution (% ID/g organ) Brain ([3]; 15 Min): 0.08 ± 0.01 % ID/g organ
- Biodistribution (% ID/g organ) Brain ([3]; 24 Hrs): 0 % ID/g organ
- Biodistribution (% ID/g organ) Brain ([3]; 30 Min): 0.06 ± 0.01 % ID/g organ
- Biodistribution (% ID/g organ) Brain ([3]; 60 Min): 0.04 ± 0.001 % ID/g organ
- Biodistribution (% ID/g organ) Brain ([3]; 180 Min): 0.03 ± 0.001 % ID/g organ
- Biodistribution (% ID/g organ) Brain ([3]; 240 Min): 0.02 ± 0.01 % ID/g organ
- Biodistribution (% ID/g organ) Brain ([3]; 360 Min): 0.02 ± 0.001 % ID/g organ
- Biodistribution (% ID/g organ) Heart ([3]; 5 Min): 3.25 ± 0.58 % ID/g organ
- Biodistribution (% ID/g organ) Heart ([3]; 15 Min): 2.09 ± 0.09 % ID/g organ
- Biodistribution (% ID/g organ) Heart ([3]; 24 Hrs): 0.02 ± 0.001 % ID/g organ
- Biodistribution (% ID/g organ) Heart ([3]; 30 Min): 1.41 ± 0.14 % ID/g organ
- Biodistribution (% ID/g organ) Heart ([3]; 60 Min): 1.07 ± 0.09 % ID/g organ
- Biodistribution (% ID/g organ) Heart ([3]; 180 Min): 0.68 ± 0.09 % ID/g organ
- Biodistribution (% ID/g organ) Heart ([3]; 240 Min): 0.54 ± 0.05 % ID/g organ
- Biodistribution (% ID/g organ) Heart ([3]; 360 Min): 0.38 ± 0.02 % ID/g organ
- Biodistribution (% ID/g organ) Kidney ([3]; 5 Min): 1.8 ± 0.35 % ID/g organ
- Biodistribution (% ID/g organ) Kidney ([3]; 15 Min): 1.66 ± 0.13 % ID/g organ
- Biodistribution (% ID/g organ) Kidney ([3]; 24 Hrs): 0.03 ± 0.001 % ID/g organ
- Biodistribution (% ID/g organ) Kidney ([3]; 30 Min): 1.25 ± 0.09 % ID/g organ
- Biodistribution (% ID/g organ) Kidney ([3]; 60 Min): 0.97 ± 0.07 % ID/g organ
- Biodistribution (% ID/g organ) Kidney ([3]; 180 Min): 0.61 ± 0.02 % ID/g organ
- Biodistribution (% ID/g organ) Kidney ([3]; 240 Min): 0.5 ± 0.07 % ID/g organ
- Biodistribution (% ID/g organ) Kidney ([3]; 360 Min): 0.36 ± 0.01 % ID/g organ
- Biodistribution (% ID/g organ) Liver ([3]; 5 Min): 0.94 ± 0.12 % ID/g organ
- Biodistribution (% ID/g organ) Liver ([3]; 15 Min): 0.7 ± 0.07 % ID/g organ
- Biodistribution (% ID/g organ) Liver ([3]; 24 Hrs): 0.09 ± 0.01 % ID/g organ
- Biodistribution (% ID/g organ) Liver ([3]; 30 Min): 0.59 ± 0.04 % ID/g organ
- Biodistribution (% ID/g organ) Liver ([3]; 60 Min): 0.47 ± 0.02 % ID/g organ
- Biodistribution (% ID/g organ) Liver ([3]; 180 Min): 0.37 ± 0.01 % ID/g organ
- Biodistribution (% ID/g organ) Liver ([3]; 240 Min): 0.33 ± 0.04 % ID/g organ
- Biodistribution (% ID/g organ) Liver ([3]; 360 Min): 0.27 ± 0.01 % ID/g organ
- Biodistribution (% ID/g organ) Lungs ([3]; 5 Min): 2.81 ± 0.49 % ID/g organ
- Biodistribution (% ID/g organ) Lungs ([3]; 15 Min): 1.79 ± 0.18 % ID/g organ
- Biodistribution (% ID/g organ) Lungs ([3]; 24 Hrs): 0.02 ± 0.001 % ID/g organ
- Biodistribution (% ID/g organ) Lungs ([3]; 30 Min): 1.39 ± 0.14 % ID/g organ
- Biodistribution (% ID/g organ) Lungs ([3]; 60 Min): 0.97 ± 0.22 % ID/g organ
- Biodistribution (% ID/g organ) Lungs ([3]; 180 Min): 0.72 ± 0.05 % ID/g organ
- Biodistribution (% ID/g organ) Lungs ([3]; 240 Min): 0.63 ± 0.05 % ID/g organ
- Biodistribution (% ID/g organ) Lungs ([3]; 360 Min): 0.44 ± 0.07 % ID/g organ
- Biodistribution (% ID/g organ) Olfactive bulbs ([3]; 5 Min): 0.2 ± 0.02 % ID/g organ
- Biodistribution (% ID/g organ) Olfactive bulbs ([3]; 15 Min): 0.18 ± 0.03 % ID/g organ
- Biodistribution (% ID/g organ) Olfactive bulbs ([3]; 24 Hrs): 0.01 ± 0.001 % ID/g organ
- Biodistribution (% ID/g organ) Olfactive bulbs ([3]; 30 Min): 0.13 ± 0.02 % ID/g organ
- Biodistribution (% ID/g organ) Olfactive bulbs ([3]; 60 Min): 0.14 ± 0.001 % ID/g organ
- Biodistribution (% ID/g organ) Olfactive bulbs ([3]; 180 Min): 0.09 ± 0.02 % ID/g organ
- Biodistribution (% ID/g organ) Olfactive bulbs ([3]; 240 Min): 0.07 ± 0.001 % ID/g organ
- Biodistribution (% ID/g organ) Olfactive bulbs ([3]; 360 Min): 0.05 ± 0.001 % ID/g organ
- Biodistribution (% ID/g organ) Testes ([3]; 5 Min): 0.14 ± 0.03 % ID/g organ
- Biodistribution (% ID/g organ) Testes ([3]; 15 Min): 0.22 ± 0.06 % ID/g organ
- Biodistribution (% ID/g organ) Testes ([3]; 24 Hrs): 0.01 ± 0.001 % ID/g organ
- Biodistribution (% ID/g organ) Testes ([3]; 30 Min): 0.26 ± 0.05 % ID/g organ
- Biodistribution (% ID/g organ) Testes ([3]; 60 Min): 0.28 ± 0.05 % ID/g organ
- Biodistribution (% ID/g organ) Testes ([3]; 180 Min): 0.25 ± 0.01 % ID/g organ
- Biodistribution (% ID/g organ) Testes ([3]; 240 Min): 0.22 ± 0.03 % ID/g organ
- Biodistribution (% ID/g organ) Testes ([3]; 360 Min): 0.16 ± 0.03 % ID/g organ

SMILES: CNC(=O)Cc1c(-c2ccc(F)cc2)nc2ccc(Cl)cn12 [B]
- IC50 [1]: 5.9 nM
- melting point: 254 to 256 °C
- IC50 [2]: > 1000 nM

SMILES: CCCCN(CCCC)C(=O)Cc1c(-c2ccc(I)cc2)nc2ccc(Cl)cn12 [Example 7, 6-chloro-2-(4′-iodophenyl)-imidazo[1,2-a]pyridine-3-(N,N-dibutyl)-acetamide]
- IC50 [1]: > 1000 nM
- melting point: 250 to 252 °C
- IC50 [2]: 177 nM

SMILES: CCN(CC)C(=O)Cc1c(-c2ccc(I)cc2)nc2ccc(Cl)cn12 [Example 3, 6-chloro-2-(4′-iodophenyl)-imidazo[1,2-a]pyridine-3-(N,N-diethyl)acetamide]
- IC50 [1]: > 1000 nM
- IC50 [2]: < 0.01 nM
